From BindingDB's records for doi:10.1021/jm00100a005 (Eli Lilly, 1992)

Target: Muscarinic acetylcholine receptor M1 (Oryctolagus cuniculus)
Experiment: Efficacy at muscarinic acetylcholine receptor M1 measured by the ability to inhibit the electrically stimulated twitch of the rabbit vas deferens

IC50: 1 pM
Compound: CCCCCCSc1nsnc1C1=CCCN(C)C1 [5-(4-Hexylsulfanyl-[1,2,5]thiadiazol-3-yl)-1-methyl-1,2,3,6-tetrahydro-pyridine; oxalic acid]
